Results reported in publication PMC12655527, “An Investigational Study on the Role of ADME Agents’ Genetic Variation on DD217 Pharmacokinetics and Safety Profile” (Pharmaceuticals, 2025).

Key:
[1] = system: patients undergoing knee replacement surgery; test: Thromboembolic complications (DVT/PE) during 14-day therapy, phase II trial; type: in vivo, human; conditions: for With DVT/PE / Without DVT/PE: 40 mg/day, number of patients; for cases of DVT/PE / PE/DVT, n (safety outcomes): 14 days
Source text: The design, eligibility criteria, and outcomes of the phase II clinical trial evaluating the safety and tolerability of DD217 (NCT05189002, ClinicalTrials.gov) have been described previously. Briefly, this was a multicenter, double-blind, randomized, prospective phase II study designed to determine the optimal dosing regimen and to assess the safety and efficacy of DD217 for the prevention of venous thromboembolism (VTE) in patients undergoing knee replacement surgery. Patients were randomized into one of three groups: two groups received oral DD217 at doses of 40 mg or 60 mg once daily, starting on the morning of the first postoperative day, and one group received the active comparator, dalteparin sodium. The treatment duration was 14 days.
In total, seven cases of DVT/PE were documented during the trial: four in the DD217 40 mg/day group, one in the DD217 60 mg/day group, and two in the dalteparin sodium group. In addition, two bleeding events were recorded: one clinically relevant non-major bleed in the DD217 60 mg/day group and one clinically non-relevant minor bleed in the dalteparin sodium group.

Factor Xa = system: Factor Xa; design: method as in PMID 29468977; conditions: preclinical studies; cited from earlier work

In the case of `CC(=N)N(C)c1ccc(C(=O)Nc2ccc(C)cc2C(=O)Nc2ccc(Cl)cn2)cc1.Cl` [DD217, N-(5-chloropyridin-2-yl)-5-methyl-2-[4-(N-methylacetimidamido)benzamido]benzamide hydrochloride], the “With DVT/PE” value ([1]; ABCB1 rs1045642 C/C (n 5)) is reported as 3, the “Without DVT/PE” value ([1]; ABCB1 rs1045642 C/C (n 5)) is reported as 2 and the “With DVT/PE” value ([1]; ABCB1 rs1045642 T/C (n 7)) is reported as 1. The “Without DVT/PE” value ([1]; ABCB1 rs1045642 T/C (n 7)) was 6, the “With DVT/PE” value ([1]; ABCB1 rs1045642 T/T (n 4)) was 0 and the “Without DVT/PE” value ([1]; ABCB1 rs1045642 T/T (n 4)) was 4. For the same compound, the “With DVT/PE” value ([1]; ABCB1 rs1128503 C/C (n 8)) was 3, the “Without DVT/PE” value ([1]; ABCB1 rs1128503 C/C (n 8)) was 5 and the “With DVT/PE” value ([1]; ABCB1 rs1128503 C/T (n 6)) was 1. The “Without DVT/PE” value ([1]; ABCB1 rs1128503 C/T (n 6)) was 5, the “With DVT/PE” value ([1]; ABCB1 rs1128503 T/T (n 2)) was 0 and the “Without DVT/PE” value ([1]; ABCB1 rs1128503 T/T (n 2)) was 2. The “With DVT/PE” value ([1]; ABCB1 rs2032582 G/G (n 8)) was 3, the “Without DVT/PE” value ([1]; ABCB1 rs2032582 G/G (n 8)) was 5 and the “With DVT/PE” value ([1]; ABCB1 rs2032582 G/T (n 6)) was 1. The “Without DVT/PE” value ([1]; ABCB1 rs2032582 G/T (n 6)) was 5, the “With DVT/PE” value ([1]; ABCB1 rs2032582 T/T (n 2)) was 0 and the “Without DVT/PE” value ([1]; ABCB1 rs2032582 T/T (n 2)) was 2. For the same compound, the “With DVT/PE” value ([1]; ABCB1 rs4148738 C/C (n 2)) was 0, the “Without DVT/PE” value ([1]; ABCB1 rs4148738 C/C (n 2)) was 2 and the “With DVT/PE” value ([1]; ABCB1 rs4148738 T/C (n 6)) was 1. The “Without DVT/PE” value ([1]; ABCB1 rs4148738 T/C (n 6)) was 5, the “With DVT/PE” value ([1]; ABCB1 rs4148738 T/T (n 8)) was 3 and the “Without DVT/PE” value ([1]; ABCB1 rs4148738 T/T (n 8)) was 5. For the same compound, the “cases of DVT/PE” value ([1]; DD217 40 mg/day group (n = 16)) was “four”, the “PE/DVT, n (safety outcomes)” value ([1]; DD217 40 mg/day oral, of 16 patients) was 4 n and the “cases of DVT/PE” value ([1]; DD217 60 mg/day group (n = 18)) was “one”. The “PE/DVT, n (safety outcomes)” value ([1]; DD217 60 mg/day oral, of 18 patients) was 1 n and the “affinity for the active site of factor Xa” value (Factor Xa) was “high affinity”.
